Data published in patent US20060004037A1, “Novel tricyclic compounds and related methods of treatment” (TransForm Pharmaceuticals, Inc., priority 2004, published 2006).
In brackets after ≈: the same amount, converted by molar mass. Counter-ions that a name gives are not always drawn. Blank lines part the entries; values can stand above or below the compound they belong to.

Key:
Dynamic vapor sorption = format: physicochemical
[1] = Single excipient solubility screen; format: physicochemical
From the text: A single excipient screen was completed in an attempt to find an appropriate excipient for a liquid formulation of LSN 487355. […]

pKa = format: physicochemical; conditions: free base form
Hygroscopicity (VTI) = format: physicochemical; conditions: free base form
[2] = Solubility in various solvents/solubilizing mixtures; format: physicochemical
From the text: The solubility of LSN 487355 in a variety of vehicles is illustrated in Table III.

Caco-2 = Caco-2 permeability; format: in vitro ADME; conditions: free base form
Caco-2 permeability = format: in vitro ADME; conditions: human, Caco-2, free base form; for efflux ratio: read-out: B-A/A-B ratio

Moisture sorption isotherm (Dynamic vapor sorption; dynamic vapor sorption): significant moisture sorption isotherm
Relative humidity at which deliquescence begins (Dynamic vapor sorption; dynamic vapor sorption): 80-90 % RH
Crystallinity in dynamic vapor sorption (Dynamic vapor sorption; equilibrated under flowing nitrogen (0% RH)): loss of crystallinity
solubility ([1]; oil or lipid, excipient labrasol (FIG. 13)): ≥ 20000 µg/mL
solubility ([1]; organic solvent or mixture, excipient PEG-600 (FIG. 13)): ≥ 20000 µg/mL
SMILES: Cc1onc2c1c(=O)n([C@H]1CCC[C@@H](CNC(=O)c3ccc(F)nc3)C1)c1cccc(Cl)c21 [LSN 487355 phosphate salt]

pKa (pKa): 3.77
Hygroscopicity (VTI) (Hygroscopicity (VTI)): Non-hygroscopic
solubility ([2]; 4% DMSO in deionized water, kinetic from dmso stock, 4% DMSO, compound dissolved in solvent first, then deionized water added): 2 µg/mL (≈ 0.00427 mM)
solubility ([2]; 5% N-methyl-2-pyrrolidone in deionized water, aqueous with cosolvent or surfactant or cyclodextrin, kinetic from dmso stock, 5% N-methyl-2-pyrrolidone, compound dissolved in solvent first, then deionized water added): 4 µg/mL (≈ 0.00853 mM)
solubility ([2]; 10% DMSO in deionized water, aqueous with cosolvent or surfactant or cyclodextrin, kinetic from dmso stock, 10% DMSO, compound dissolved in solvent first, then deionized water added): 4 µg/mL (≈ 0.00853 mM)
solubility ([2]; 10% N-methyl-2-pyrrolidone in deionized water, aqueous with cosolvent or surfactant or cyclodextrin, kinetic from dmso stock, 10% N-methyl-2-pyrrolidone, compound dissolved in solvent first, then deionized water added): 30 µg/mL (≈ 0.064 mM)
solubility ([2]; Capmul PG8, oil or lipid): 12000 to 15000 µg/mL (≈ 25.6 to 32 mM)
solubility ([2]; DMA, organic solvent or mixture): 208000 to 416000 µg/mL (≈ 444 to 887 mM)
solubility ([2]; Ethanol, organic solvent or mixture): 1400 µg/mL (≈ 2.99 mM)
solubility ([2]; Ethyl Oleate, oil or lipid): < 2000 µg/mL
solubility ([2]; Ethyl acetate, organic solvent or mixture): 3 µg/mL (≈ 0.0064 mM)
solubility ([2]; Glycofurol, organic solvent or mixture): > 2000 µg/mL
solubility ([2]; Labrafac Hydro WL 219, oil or lipid): > 2000 µg/mL
solubility ([2]; Labrafac Lipophile WL 1349, oil or lipid): < 2000 µg/mL
solubility ([2]; Labrafil M1944CS, oil or lipid): < 2000 µg/mL
solubility ([2]; Labrafil M2125CS, oil or lipid): < 2000 µg/mL
solubility ([2]; Labrasol, oil or lipid): 4000 to 5000 µg/mL (≈ 8.53 to 10.7 mM)
solubility ([2]; NMP, organic solvent or mixture): > 563000 µg/mL
solubility ([2]; Olive oil, oil or lipid): < 2000 µg/mL
solubility ([2]; PEG 300, organic solvent or mixture): > 2000 µg/mL
solubility ([2]; Phosphal 50 PG, oil or lipid): > 2000 µg/mL
solubility ([2]; Phosphal 53 MCT, oil or lipid): > 2000 µg/mL
solubility ([2]; Propylene Glycol, organic solvent or mixture): < 2000 µg/mL
solubility ([2]; Safflower oil, oil or lipid): < 2000 µg/mL
solubility ([2]; Soybean oil, oil or lipid): < 2000 µg/mL
solubility ([2]; organic solvent or mixture, DMSO, measured visually at about 50 mg/mL, all compound dissolved): ≥ 51000 µg/mL
solubility ([2]; organic solvent or mixture, N-methyl-2-pyrrolidone, measured visually at about 50 mg/mL, all compound dissolved): ≥ 52000 µg/mL
Permeability class (Caco-2): Borderline high
Papp (Caco-2 permeability): 7.9 ×10⁻⁶ cm/s
efflux ratio (Caco-2 permeability): 2.3
SMILES: Cc1onc2c1c(=O)n([C@H]1CCC[C@@H](CNC(=O)c3ccc(F)nc3)C1)c1cccc(Cl)c21 [LSN 487355]

Hygroscopicity (VTI) (Hygroscopicity (VTI)): Non-hygroscopic
Permeability class (Caco-2): Borderline high
Papp (Caco-2 permeability): 7.4 ×10⁻⁶ cm/s
efflux ratio (Caco-2 permeability): 2.7
SMILES: Cc1onc2c1c(=O)n([C@H]1CCC[C@@H](NC(=O)[C@@H](O)c3ccc(F)nc3)C1)c1cccc(Cl)c21 [LSN 509207]
